Laboratory results taken from ChEMBL document CHEMBL4706697, “Structure-based designing and synthesis of 2-phenylchromone derivatives as potent tyrosinase inhibitors: In vitro and in silico studies” (Bioorg Med Chem, 2021).

target: T1, Mushroom tyrosinase (Agaricus bisporus, UniProt O42713+Q00024+C7FF04+C7FF05); test: Inhibition of mushroom tyrosinase using L-Dopa as substrate preincubated for 10 mins followed by substrate addition and measured after 20 mins

Row | Structure (SMILES) | IC50
1 | CN(C)c1ccc(-c2oc3cc(Br)cc(Br)c3c(=O)c2O)cc1 | 0.5 µg/mL
2 | O=c1c(O)c(-c2c[nH]c3ccccc23)oc2cc(Br)cc(Br)c12 | 23.58 µg/mL
3 | O=c1c(O)c(-c2ccc([N+](=O)[O-])cc2)oc2cc(Br)cc(Br)c12 | 0.27 µg/mL
4 | O=c1cc(-c2cccc3ccccc23)oc2cc(Br)cc(Br)c12 | 3.41 µg/mL
5 | COc1ccc(-c2cc(=O)c3c(Br)cc(Br)cc3o2)cc1OC | 0.49 µg/mL
6 | O=c1c(O)c(-c2cccs2)oc2cc(Br)cc(Br)c12 | 3.01 µg/mL
7 | Cc1ccc(S(=O)(=O)n2cc(-c3oc4cc(Br)cc(Br)c4c(=O)c3O)c3ccccc32)cc1 | 8.175 µg/mL
8 | COc1ccc(-c2oc3cc(Br)cc(Br)c3c(=O)c2O)cc1OC | 0.093 µg/mL
9 | O=c1c(O)c(-c2ccc(O)cc2)oc2ccccc12 | 0.23 µM
10 | Cc1ccc(-c2oc3cc(Br)cc(Br)c3c(=O)c2O)c(C)c1 | 7.57 µg/mL
11 | Cc1ccc(S(=O)(=O)n2cc(-c3cc(=O)c4c(Br)cc(Br)cc4o3)c3ccccc32)cc1 | 22.22 µg/mL
12 | O=c1c(O)c(-c2ccc(Cl)cc2)oc2cc(Br)cc(Br)c12 | 0.71 µg/mL
13 | Cc1ccc(-c2oc3cc(Br)cc(Br)c3c(=O)c2O)cc1 | 0.126 µg/mL
14 | O=c1c(O)c(-c2cccc([N+](=O)[O-])c2)oc2cc(Br)cc(Br)c12 | 0.15 µg/mL
15 | O=c1c(O)c(-c2ccc(F)cc2)oc2cc(Br)cc(Br)c12 | 2.36 µg/mL
16 | O=c1c(O)c(-c2cccc3ccccc23)oc2cc(Br)cc(Br)c12 | 0.564 µg/mL
17 | O=C(O)c1ccc(-c2oc3cc(Br)cc(Br)c3c(=O)c2O)cc1 | 4.26 µg/mL

Next, values leading:

Row | IC50 | Structure (SMILES)
18 | 3.28 µg/mL | O=c1cc(-c2cccc([N+](=O)[O-])c2)oc2cc(Br)cc(Br)c12
19 | 20.5 µg/mL | O=c1cc(-c2ccc(F)cc2)oc2cc(Br)cc(Br)c12
20 | 0.22 µg/mL | O=c1cc(-c2c[nH]c3ccccc23)oc2cc(Br)cc(Br)c12
21 | 2.5 µg/mL | O=c1c(O)c(-c2ccco2)oc2cc(Br)cc(Br)c12
22 | 7.2 µg/mL | Cc1ccc(-c2cc(=O)c3c(Br)cc(Br)cc3o2)cc1
23 | 0.68 µg/mL | O=c1cc(-c2cccs2)oc2cc(Br)cc(Br)c12
24 | 4.2 µg/mL | O=c1cc(-c2ccc(Cl)cc2)oc2cc(Br)cc(Br)c12
25 | 9.7 µg/mL | O=C(O)c1ccc(-c2cc(=O)c3c(Br)cc(Br)cc3o2)cc1
26 | 0.57 µg/mL | CN(C)c1ccc(-c2cc(=O)c3c(Br)cc(Br)cc3o2)cc1
27 | 0.27 µg/mL | O=c1cc(-c2ccc([N+](=O)[O-])cc2)oc2cc(Br)cc(Br)c12
28 | 2.07 µg/mL | O=c1cc(-c2ccco2)oc2cc(Br)cc(Br)c12
29 | 11.33 µg/mL | Cc1ccc(-c2cc(=O)c3c(Br)cc(Br)cc3o2)c(C)c1

target: T1, Mushroom tyrosinase; test: Inhibition of mushroom tyrosinase using L-Dopa as substrate […]

Row | IC50 [µM] | Structure (SMILES)
30 | 6.13 | O=C(O)S[C@H]1N=N[C@@H](NC(=S)Nc2cccc(C(F)(F)F)c2)S1
31 | 5.85 | O=C(Nc1cccc(Cl)c1)Nc1ccc2c(c1)S(=O)(=O)NC2=O
32 | 1.07 | COc1ccc(/C=C2\NC(=S)NC2=O)c(OC)c1
33 | 8.14 | CCN1CCN(CC(=O)Nc2ccc3oc(-c4ccc(C(C)(C)C)cc4)nc3c2)CC1

target: T1, Mushroom tyrosinase; test: Inhibition of mushroom tyrosinase

Row | IC50 [µM] | Structure (SMILES)
34 | 3 | C=CCc1ccc(OC(=O)COC(=O)/C=C/c2ccc(O)cc2)c(OC)c1
